Assay results from article PMC9042253 (RSC Advances, 2021).

How the values were obtained:
CD38 cyclase = target: T1, CD38 cyclase (Homo sapiens, UniProt P28907); assay: CD38 cyclase activity, fluorometric assay with NGD+ as substrate; assay type: biochemical; conditions: for remaining activity at 50 µM: read-out: % cyclase activity remaining (50 μM)
T1 sequence (P28907 1-300): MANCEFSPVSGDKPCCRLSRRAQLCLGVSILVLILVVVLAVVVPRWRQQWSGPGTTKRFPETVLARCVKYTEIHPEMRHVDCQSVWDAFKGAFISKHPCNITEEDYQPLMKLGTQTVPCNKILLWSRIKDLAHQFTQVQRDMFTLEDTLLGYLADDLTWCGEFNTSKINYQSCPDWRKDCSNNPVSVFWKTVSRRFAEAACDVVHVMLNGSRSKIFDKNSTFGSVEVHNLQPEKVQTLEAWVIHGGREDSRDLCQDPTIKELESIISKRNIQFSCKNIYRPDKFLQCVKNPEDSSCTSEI

PBMCs = assay: Cytokine analysis; assay type: cell-based; conditions: 1.0 μM, 48 hours, activated PBMCs from 3 donors
CD38 hydrolase = target: T2, CD38 hydrolase (Homo sapiens, UniProt P28907); assay: CD38 hydrolase activity, fluorometric assay with ε-NAD+ as substrate; assay type: biochemical; conditions: hydrolase versus cyclase screen
T2 sequence (P28907 1-300): T1 sequence (P28907 1-300)

Question: With `CS(=O)(=O)c1ccc(/C=C2\SC(=S)NC2=O)cc1` [Compound 21] as the compound, how does the IC50 (CD38 cyclase) read?
Answer: Its IC50 is 11.5 µM.

Question: And the remaining activity at 50 µM (CD38 cyclase)?
Answer: Its remaining activity at 50 µM is 22.1 ± 4%.

Question: For `O=C1NC(=S)S/C1=C\c1ccc(OC(F)(F)F)cc1` [Compound 22], which IC50 (CD38 cyclase) is on record?
Answer: Its IC50 is 4.81 µM.

Question: And the remaining activity at 50 µM (CD38 cyclase)?
Answer: Its remaining activity at 50 µM is 21.7 ± 8.1%.

Question: Which results are given for `O=C1NC(=S)S/C1=C\c1ccc(C(F)(F)F)cc1` [Compound 23]?
Answer: IC50 (CD38 cyclase): 4.65 µM; remaining activity at 50 µM (CD38 cyclase): 9.3 ± 0.8%; increase in IFNγ (in words) (PBMCs): more effective than 78c

Question: For `COc1ccc(-c2ccc(/C=C3\SC(=S)N(C)C3=O)cc2)cc1` [Compound 24], which IC50 (CD38 cyclase) is on record?
Answer: The IC50 was greater than 100 µM.

Question: What about the remaining activity at 50 µM (CD38 cyclase) of the same compound?
Answer: The remaining activity at 50 µM was 90.1 ± 3.9%.

Question: Which IC50 (CD38 cyclase) does the source give for `O=C1NC(=S)S/C1=C\c1ccc2ncccc2c1` [Compound 25] here?
Answer: Its IC50 is 56 µM.

Question: What about the remaining activity at 50 µM (CD38 cyclase) of the same compound?
Answer: The remaining activity at 50 µM was 68.3 ± 18.2%.

Question: Which IC50 (CD38 cyclase) does the source give for `O=C1NC(=S)S/C1=C\c1ccc2oc3ccccc3c2c1` [Compound 26] here?
Answer: Its IC50 is greater than 100 µM.

Question: What about the remaining activity at 50 µM (CD38 cyclase) of the same compound?
Answer: Its remaining activity at 50 µM is 77.3 ± 22.4%.

Question: What does the source list for `O=C1NC(=S)S/C1=C\c1ccc(Oc2ccccc2)cc1` [Compound 27]?
Answer: IC50 (CD38 cyclase): > 100 µM; remaining activity at 50 µM (CD38 cyclase): 88.2 ± 0.6%

Question: `O=C1NC(=S)S/C1=C\c1ccc2c(c1)OCCO2` [Compound 28] was tested. Which IC50 (CD38 cyclase) did it give?
Answer: Its IC50 is greater than 100 µM.

Question: And the remaining activity at 50 µM (CD38 cyclase)?
Answer: The remaining activity at 50 µM was 93.9 ± 6.9%.

Question: With `Cc1ccc(-c2cccc(/C=C3\SC(=S)NC3=O)c2)cc1` [Compound 29] as the compound, how does the IC50 (CD38 cyclase) read?
Answer: The IC50 was greater than 100 µM.

Question: And the remaining activity at 50 µM (CD38 cyclase)?
Answer: The remaining activity at 50 µM was 98.6 ± 4.7%.

Question: Which IC50 (CD38 cyclase) does the source give for `O=C1NC(=S)S/C1=C\c1cc2cc3c(cc2nc1Cl)OCO3` [Compound 30] here?
Answer: The IC50 was 20.9 µM.

Question: What about the remaining activity at 50 µM (CD38 cyclase) of the same compound?
Answer: The remaining activity at 50 µM was 70.3 ± 40.7%.

Question: With `O=C1NC(=S)S/C1=C\c1ccc2c(c1)-c1ccccc1C2` [Compound 31] as the compound, how does the IC50 (CD38 cyclase) read?
Answer: Its IC50 is greater than 100 µM.

Question: What about the remaining activity at 50 µM (CD38 cyclase) of the same compound?
Answer: Its remaining activity at 50 µM is 96.3 ± 6.8%.

Question: Which results are given for `O=C1NC(=S)S/C1=C\c1ccc(-c2ccc(C(F)(F)F)cc2)cc1` [Compound 32]?
Answer: IC50 (CD38 cyclase): 3.15 µM; remaining activity at 50 µM (CD38 cyclase): 64.5 ± 4.2%; increase in IFNγ (in words) (PBMCs): more effective than 78c

Question: For `Cc1ccc(-c2ccc(/C=C3\SC(=S)NC3=O)cc2)cc1` [Compound 33], which IC50 (CD38 cyclase) is on record?
Answer: The IC50 was 10 µM.

Question: And the remaining activity at 50 µM (CD38 cyclase)?
Answer: The remaining activity at 50 µM was 39.4 ± 4.9%.

Question: For `O=C1NC(=S)S/C1=C\c1ccc(-c2ccccn2)cc1` [Compound 34], which IC50 (CD38 cyclase) is on record?
Answer: The IC50 was 56 µM.

Question: What about the remaining activity at 50 µM (CD38 cyclase) of the same compound?
Answer: Its remaining activity at 50 µM is 66.3 ± 23.4%.

Question: Which IC50 (CD38 cyclase) does the source give for `O=C1NC(=S)S/C1=C\c1ccc(-c2cccc(C(F)(F)F)c2)o1` [Compound 35] here?
Answer: The IC50 was greater than 100 µM.

Question: What about the remaining activity at 50 µM (CD38 cyclase) of the same compound?
Answer: Its remaining activity at 50 µM is 81.7 ± 9%.

Question: `COc1ccc2cc(/C=C3\SC(=S)NC3=O)ccc2c1` [Compound 36] was tested. Which IC50 (CD38 cyclase) did it give?
Answer: The IC50 was greater than 100 µM.

Question: And the remaining activity at 50 µM (CD38 cyclase)?
Answer: Its remaining activity at 50 µM is 90 ± 5.4%.

Question: Which results are given for `Cc1ccc(-c2ccc(/C=C3\SC(=O)NC3=O)cc2)cc1` [Compound 37]?
Answer: IC50 (CD38 cyclase): > 100 µM; remaining activity at 50 µM (CD38 cyclase): 84.5 ± 2.2%

Question: Which results are given for `O=C1NC(=S)S/C1=C\c1ccc(OCc2ccccc2)cc1` [Compound 38]?
Answer: IC50 (CD38 cyclase): > 100 µM; remaining activity at 50 µM (CD38 cyclase): 84.5 ± 8.5%

Question: How did the IC50 (CD38 cyclase) turn out when `COc1cc(/C=C2\SC(=S)NC2=O)cc(OC)c1OC` [Compound 39] was run?
Answer: The IC50 was 68.6 µM.

Question: What about the remaining activity at 50 µM (CD38 cyclase) of the same compound?
Answer: The remaining activity at 50 µM was 64.1 ± 7.2%.

Question: How did the remaining activity at 50 µM (CD38 cyclase) turn out when `O=C1NC(=S)S/C1=C\c1ccc(-c2ccccc2)cc1` [Compound 40] was run?
Answer: The remaining activity at 50 µM was 22.1 ± 14.3%.

Question: What does the source list for `O=C1NC(=S)S/C1=C\c1ccccc1C(F)(F)F` [Compound 41]?
Answer: IC50 (CD38 cyclase): > 100 µM; remaining activity at 50 µM (CD38 cyclase): 81.6 ± 2.4%

Question: With `O=C1NC(=S)S/C1=C\c1ccccc1OC(F)(F)F` [Compound 42] as the compound, how does the IC50 (CD38 cyclase) read?
Answer: Its IC50 is greater than 100 µM.

Question: And the remaining activity at 50 µM (CD38 cyclase)?
Answer: The remaining activity at 50 µM was 87.1 ± 3.4%.

Question: Which IC50 (CD38 cyclase) does the source give for `Cc1ccc(-c2ccc(/C=C3\SC(=S)N(C)C3=O)cc2)cc1` [Compound 43] here?
Answer: Its IC50 is 48.2 µM.

Question: And the remaining activity at 50 µM (CD38 cyclase)?
Answer: Its remaining activity at 50 µM is 29 ± 18.8%.

Question: For `COc1ccc(-c2ccc(/C=C3\SC(=S)NC3=O)cc2)cc1` [Compound 45], which IC50 (CD38 cyclase) is on record?
Answer: The IC50 was 53.8 µM.

Question: What about the remaining activity at 50 µM (CD38 cyclase) of the same compound?
Answer: The remaining activity at 50 µM was 55.7 ± 2.3%.

Question: With `O=c1cc(-c2ccc(O)cc2)oc2cc(O)cc(O)c12` [apigenin] as the compound, how does the “selectivity between hydrolase and cyclase activity (in words)” value (CD38 hydrolase) read?
Answer: The value was “neither compound showed significant selectivity”.
